Patent US20250325525A1, “GLP1 TABLET COMPOSITIONS” (Eli Lilly and Company, priority 2022, published 2025)

Experiment: Twenty-four hour aqueous solubility at 25° C.
Type: physicochemical
Details: thermodynamic from solid, crystalline
Procedure: Twenty-four Hour Aqueous Solubility of Crystalline GLP1RA-Ca at 25° C.
Twenty-Four Hour Aqueous Solubility of Preparation 3 SDD at 25° C.

solubility at 24 h (aqueous buffer, pH 4.5 acetate buffer (USP), media pH 4.5): < 1 µg/mL | solubility at 24 h (aqueous buffer, pH 6.0 phosphate buffer (USP), media pH 5.99): < 1 µg/mL | solubility at 24 h (aqueous buffer, pH 7.5 phosphate buffer (USP), media pH 7.44): 3 µg/mL | solubility at 24 h (fassif, Fasted state simulated intestinal fluid, media pH 6.49): 2 µg/mL | solubility at 24 h (fessif, Fed state simulated intestinal fluid, media pH 4.93): 13 µg/mL | solubility at 24 h (simulated gastric fluid, 0.01N HCl, media pH 1.98): < 1 µg/mL | solubility at 24 h (simulated gastric fluid, 0.1N HCl, media pH 1.01): < 1 µg/mL | solubility at 24 h (Simulated gastric fluid, media pH 1.97): 3 µg/mL | solubility at 24 h (Water, media pH not measured): 28 µg/mL
SMILES: Cc1cc(-n2nc3c(c2-n2ccn(-c4ccc5c(cnn5C)c4F)c2=O)[C@H](C)N(C(=O)c2cc4cc([C@H]5CCOC(C)(C)C5)ccc4n2[C@@]2(c4noc(=O)[nH]4)C[C@@H]2C)CC3)cc(C)c1F [GLP1RA-Ca, 3-[(1S,2S)-1-[5-[(4S)-2,2-dimethyloxan-4-yl]-2-[(4S)-2-(4-fluoro-3,5-dimethylphenyl)-3-[3-(4-fluoro-1-methylindazol-5-yl)-2-oxoimidazol-1-yl]-4-methyl-6,7-dihydro-4H-pyrazolo[4,3-c]pyridine-5-carbonyl]indol-1-yl]-2-methylcyclopropyl]-4H-1,2,4-oxadiazol-5-one, 0.5 Ca hydrate]
